Results on 16 molecules are retold here after US7598377B2, “Inhibition of phosphoinositide 3-kinase β” (AstraZeneca AB, priority 2002, dated 2009).

Where only a bound is given, the exact number is not on record here.

What all share (type): biochemical
One test addresses T1, P110 δ (Homo sapiens, UniProt O00329).
T1 construct: The δ isoform was immunoprecipitated from THP-1 cells; endogenous in cells; host or cells: THP-1 cells (immunoprecipitated with antibody sc-7176)
In words: Isoform selective in vitro PI3K enzyme assay (Example 13), δ from THP-1 cells. The conditions noted are these: read-out: P110 δ IC50s. On the procedure: In vitro enzyme assays were conducted as a primary screen to determine drug candidate isoform affinity and specificity. […] The γ isoform was produced as a recombinant protein in the Kinacia laboratories. […] Standard phosphorylation assays using phosphatidylinositol and ^32P were used to measure the enzyme activity in the immunoprecipates in the presence or absence of an inhibitor. Enzyme activity was determined over a range of inhibitor concentrations to establish an IC50 value.

The subject of test [1] is PI 3-kinase immunoprecipitated from human platelets (p85/110 form). Nature of the test: In vitro PI 3-kinase assay (Example 8), Platelet IP (p85). As to conditions: read-out: Platelet IP (p85) IC50s. Here is the method:
The effect of pyridine-substituted compounds on PI 3-kinase activity was determined using an in vitro PI 3-kinase assay. This assay was performed using PI 3-kinase immunoprecipitated from human platelets as the enzyme and PI as the substrate. The PI 3-kinase activity was quantitated by measuring the enzymatic incorporation of [^32P] into PI, forming PI([^32P]-3)P, as previously described (Susa et al., 1992, The Journal of Biological Chemistry 267(32):22951-22956.
Washed human platelets were lysed in Triton X-100 lysis buffer (10 mM Tris, pH 7.4, 1% Triton X-100, 2 mM EDTA, 1 mM PMSF) for 30 minutes. The Triton X-100 insoluble fraction was removed by centrifugation of the cell lysates at 15,000 g for 10 minutes. PI 3-kinase was immunoprecipitated by mixing 500 μg of the cell lysate with 1 μg of a rabbit anti-rat antibody against the p85/110 form of PI 3-kinase and 30 μl of 50% Protein A-sepharose beads for 2 hours at 4° C. The Protein A-sepharose-bound PI 3-kinase was isolated by pelleting the beads at 15,000 g for 5 seconds, and washing three times with ice-cold Triton X-100 lysis buffer followed by four washes with PI 3-kinase assay buffer (20 mM HEPES, pH 7.4, 1 mM EGTA, 5 mM MgCl2).
PI stored in CHCl3 was dried under N2, resuspended in the lipid buffer (50 mM HEPES, pH 7.2, 1 mM EDTA) at a final concentration of 330 μg/ml, and sonicated for 6 minutes on ice. PI([^32P]-3)P was generated by mixing the immunoprecipitated PI 3-kinase for 20 minutes with 40 μl of the PI, 10 μl of ATP (1 mM) and ^32P-r-ATP (0.5 μCi, 1 μCi/nmol), 10 μl of 10× kinase buffer, in a final assay volume of 100 μl adjusted with H2O. TGX-was preincubated with the PI 3-kinase for 5 minutes prior to the addition of ATP. The assay was terminated with 100 μl of 1 N HCl, and the PI([^32P]-3)P product extracted with 200 μl chloroform:methanol (1:1) and 500 μl 2 M KCl. The PI([^32P]-3)P in the chloroform phase was resolved by thin layer chromatography using a solvent system containing CHCl3:MeOH:HAC:H2O (43:38:5:7) (v:v:v:v), and visualized by autoradiography. The PI([^32P]-3)P spots were then scraped off from the TLC plates, deacylated with 1 ml methylamine:butanol:methanol (42:9:47) (v:v:v) for 4 hours at 53° C., and quantitated using a liquid scintillation counter (LKB 1209 RackBETA).

Another test addresses T2, P110 γ (Homo sapiens, UniProt P48736).
T2 construct: made in house
Nature of the test: Isoform selective in vitro PI3K enzyme assay (Example 13), γ recombinant. The conditions noted are these: read-out: P110 γ IC50s. Here is the method:
In vitro enzyme assays were conducted as a primary screen to determine drug candidate isoform affinity and specificity. The α and β isoforms of the PI3K were immunoprecipitated from a platelet lysate, using an antibodies obtained from Santa Cruz Biotechnology, that recognized specific regions of p110α (sc-7174) and β (sc-603) isoforms. The γ isoform was produced as a recombinant protein in the Kinacia laboratories. […] Standard phosphorylation assays using phosphatidylinositol and ^32P were used to measure the enzyme activity in the immunoprecipates in the presence or absence of an inhibitor. Enzyme activity was determined over a range of inhibitor concentrations to establish an IC50 value.

T1 sequence (O00329 whole entry, canonical isoform): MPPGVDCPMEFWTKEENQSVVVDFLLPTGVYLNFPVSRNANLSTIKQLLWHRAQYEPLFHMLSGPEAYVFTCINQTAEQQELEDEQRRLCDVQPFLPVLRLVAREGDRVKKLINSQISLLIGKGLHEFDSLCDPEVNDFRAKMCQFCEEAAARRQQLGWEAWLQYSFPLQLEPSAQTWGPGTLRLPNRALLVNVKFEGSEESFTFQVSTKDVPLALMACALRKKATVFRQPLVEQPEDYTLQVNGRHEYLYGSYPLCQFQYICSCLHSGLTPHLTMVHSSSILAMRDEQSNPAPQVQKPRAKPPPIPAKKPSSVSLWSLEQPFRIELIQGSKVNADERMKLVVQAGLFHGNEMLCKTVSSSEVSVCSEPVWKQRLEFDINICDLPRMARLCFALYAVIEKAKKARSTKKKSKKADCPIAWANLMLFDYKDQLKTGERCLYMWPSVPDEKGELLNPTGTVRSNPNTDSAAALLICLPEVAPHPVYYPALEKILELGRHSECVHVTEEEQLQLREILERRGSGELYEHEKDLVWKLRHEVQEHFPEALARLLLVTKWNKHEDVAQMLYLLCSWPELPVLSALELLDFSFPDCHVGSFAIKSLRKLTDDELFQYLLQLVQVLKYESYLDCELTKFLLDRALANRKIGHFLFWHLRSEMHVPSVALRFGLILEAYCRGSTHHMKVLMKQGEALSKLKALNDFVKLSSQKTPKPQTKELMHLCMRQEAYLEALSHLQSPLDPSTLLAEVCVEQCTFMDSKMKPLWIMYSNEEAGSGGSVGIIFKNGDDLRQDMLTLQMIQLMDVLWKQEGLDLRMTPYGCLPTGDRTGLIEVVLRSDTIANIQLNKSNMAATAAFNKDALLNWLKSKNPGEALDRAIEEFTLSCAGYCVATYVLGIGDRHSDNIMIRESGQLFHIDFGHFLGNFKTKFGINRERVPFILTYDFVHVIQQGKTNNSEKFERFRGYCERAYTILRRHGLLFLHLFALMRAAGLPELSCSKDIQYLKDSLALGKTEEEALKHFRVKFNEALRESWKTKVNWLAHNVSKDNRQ
T1 sequence (P27986 whole entry partner, canonical isoform): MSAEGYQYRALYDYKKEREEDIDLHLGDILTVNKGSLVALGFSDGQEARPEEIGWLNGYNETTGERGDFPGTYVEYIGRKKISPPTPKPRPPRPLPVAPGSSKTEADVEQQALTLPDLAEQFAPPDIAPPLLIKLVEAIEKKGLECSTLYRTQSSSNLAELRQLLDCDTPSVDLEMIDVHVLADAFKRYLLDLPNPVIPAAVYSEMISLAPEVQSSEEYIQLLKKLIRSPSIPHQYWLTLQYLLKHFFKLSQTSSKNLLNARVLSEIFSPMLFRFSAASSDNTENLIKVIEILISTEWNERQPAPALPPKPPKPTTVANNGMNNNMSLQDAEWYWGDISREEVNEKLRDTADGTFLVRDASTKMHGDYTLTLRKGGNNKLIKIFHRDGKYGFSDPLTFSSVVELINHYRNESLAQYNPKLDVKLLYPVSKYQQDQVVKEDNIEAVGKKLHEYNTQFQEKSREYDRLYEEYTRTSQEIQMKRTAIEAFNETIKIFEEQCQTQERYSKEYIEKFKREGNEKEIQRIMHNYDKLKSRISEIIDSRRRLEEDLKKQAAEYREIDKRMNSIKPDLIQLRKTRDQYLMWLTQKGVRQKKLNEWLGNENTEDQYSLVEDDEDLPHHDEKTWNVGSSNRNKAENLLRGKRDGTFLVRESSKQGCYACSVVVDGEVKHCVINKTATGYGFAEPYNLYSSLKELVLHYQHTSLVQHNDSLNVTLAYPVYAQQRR
T2 sequence (P48736 whole entry, species assumed): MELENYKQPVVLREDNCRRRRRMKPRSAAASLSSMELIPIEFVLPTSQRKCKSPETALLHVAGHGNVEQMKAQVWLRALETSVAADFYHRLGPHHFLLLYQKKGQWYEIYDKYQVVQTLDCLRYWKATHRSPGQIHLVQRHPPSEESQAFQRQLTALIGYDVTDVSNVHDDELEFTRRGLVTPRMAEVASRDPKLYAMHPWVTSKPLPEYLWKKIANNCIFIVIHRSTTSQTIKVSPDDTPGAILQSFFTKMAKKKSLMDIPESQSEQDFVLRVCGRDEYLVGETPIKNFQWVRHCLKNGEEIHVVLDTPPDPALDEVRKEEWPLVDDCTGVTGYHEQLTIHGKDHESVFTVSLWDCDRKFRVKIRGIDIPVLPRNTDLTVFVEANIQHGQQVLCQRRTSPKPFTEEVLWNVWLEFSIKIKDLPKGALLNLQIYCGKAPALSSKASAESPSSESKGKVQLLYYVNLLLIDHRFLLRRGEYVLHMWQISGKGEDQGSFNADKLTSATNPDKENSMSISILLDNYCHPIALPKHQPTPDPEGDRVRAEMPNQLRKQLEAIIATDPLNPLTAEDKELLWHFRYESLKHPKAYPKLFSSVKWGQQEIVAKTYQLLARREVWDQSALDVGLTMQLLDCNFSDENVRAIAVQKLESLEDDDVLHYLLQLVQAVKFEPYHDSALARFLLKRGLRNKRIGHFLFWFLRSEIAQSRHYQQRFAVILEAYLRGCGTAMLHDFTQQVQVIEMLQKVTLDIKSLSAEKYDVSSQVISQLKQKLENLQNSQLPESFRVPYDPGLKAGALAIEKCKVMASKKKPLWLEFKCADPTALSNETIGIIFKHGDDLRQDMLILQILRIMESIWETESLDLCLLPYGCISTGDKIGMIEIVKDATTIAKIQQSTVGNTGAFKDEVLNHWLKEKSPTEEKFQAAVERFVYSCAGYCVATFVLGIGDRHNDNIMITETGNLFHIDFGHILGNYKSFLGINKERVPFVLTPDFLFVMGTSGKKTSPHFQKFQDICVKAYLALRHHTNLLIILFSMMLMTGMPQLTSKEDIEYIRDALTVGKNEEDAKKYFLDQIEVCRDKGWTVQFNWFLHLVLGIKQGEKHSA

Turning to “6-methyl-8-(2-acetamido)phenylaminomethyl-2-(4-pyridinyl)-4H-benzopyran-1-one [KN326]”, the IC50 on P110 δ turned out to be 1 µM; in test [1], 0.5 µM; at P110 γ it was 5 µM.

In the case of “8-Naphthyl-2-(4-pyridinyl)-4(1H)-quinolinone [KN350]”, the IC50 in test [1] came out at 0.5 µM.

Turning to `Cc1cc(C(C)Nc2ccc(F)cc2C)c2oc(-c3ccncc3)cc(=O)c2c1` (stereo not drawn) [KN303, 8-1-(4-fluoro-2-methylphenylamino)ethyl-6-methyl-2-(4-pyridinyl)-4H-1-benzopyran-4-one], the IC50 at P110 δ worked out at 0.5 µM; in test [1], 0.01 µM; at P110 γ it was 1.5 µM.

Consider `Cc1cc(CNc2ccccc2)c2oc(-c3ccncc3)cc(=O)c2c1` [KN312, 6-methyl-8-phenylaminomethyl-2-(4-pyridinyl)-4H-benzopyran-1-one], for which, in test [1], the IC50 turned out to be 0.05 µM.

In the case of `Cc1cc(COc2ccccc2)c2oc(-c3ccncc3)cc(=O)c2c1` [KN313, 6-methyl-8-phenoxymethyl-2-(4-pyridinyl)-4H-benzopyran-1-one], the figures for the IC50 (at P110 δ; in test [1]) were 5 µM and 0.1 µM, respectively.

Turning to `O=c1cc(-c2ccncc2)nc2c(NCCc3ccccc3)cccn12` [KN316, 9-(2-phenethyl)amino-2-(4-pyridinyl)-4H-Pyrido[1,2-a]pyrimidin-4-one], the IC50 (on P110 δ; in test [1]) was 1 µM each time.

Take `Cc1cc(C(C)Oc2ccccc2)c2oc(-c3ccncc3)cc(=O)c2c1` (stereo not drawn) [KN317, 6-methyl-8-1-(phenoxy)ethyl-2-(4-pyridinyl)-4H-benzopyran-1-one]: the figures for the IC50 (on P110 δ; in test [1]) were 5 µM and more than 0.1 µM, respectively.

`Cc1cc(C(C)Nc2cccc(C(F)(F)F)c2)c2oc(-c3ccncc3)cc(=O)c2c1` (stereo not drawn) [KN322, 8-1-(3-trifluoromethylphenylamino)ethyl-6-methyl-2-(4-pyridinyl)-4H-1-benzopyran-4-one]: the IC50 (at P110 δ; in test [1]) was 1 µM in each case.

Take `Cc1cc(C(C)n2c(C(F)(F)F)nc3ccccc32)c2oc(-c3ccncc3)cc(=O)c2c1` (stereo not drawn) [KN328, 6-methyl-8-1-(2-trifluoromethyl-benzimidazol-1-yl)-ethyl-2-(4-pyridinyl)-4H-benzopyran-1-one]: the IC50 in test [1] is 0.05 µM.

For the molecule `O=c1cc(-c2ccncc2)oc2c(OCc3ccccc3)cccc12` [KN335, 8-Benzyloxy-2-(4-pyridinyl)-4H-benzopyran-1-one], the IC50 (on P110 δ; in test [1]) was 1 µM throughout.

For the molecule `Cc1cc(C(C)Nc2ccccc2)c2oc(-c3cc(C)nc(Cl)c3)cc(=O)c2c1` (stereo not drawn) [KN340, 8-1-(phenylamino)ethyl-6-methyl-2-(2-chloro-6-methyl-4-pyridinyl)-4H-1-benzopyran-4-one], the IC50 at P110 δ and on P110 γ was more than 10 µM each time.

Take `O=c1cc(-c2ccncc2)oc2cc(OCc3ccccc3)ccc12` [KN342, 7-Benzyloxy-2-(4-pyridinyl)-4H-benzopyran-1-one]: the IC50 on P110 δ and on P110 γ was more than 10 µM each time.

In the case of `COc1cccc2c(=O)cc(-c3ccncc3)[nH]c12` [KN344, 8-methoxy-2-(4-pyridinyl)-4(1H)-quinolinone], the figures for the IC50 (in test [1]; on P110 γ) were 5 µM and more than 10 µM, respectively.

As for `O=c1cc(-c2ccncc2)[nH]c2c(-c3ccccc3)cccc12` [KN345, 8-phenyl-2-(4-pyridinyl)-4(1H)-quinoline], the IC50 in test [1] is 5 µM; on P110 γ, more than 10 µM.

Regarding `O=c1cc(-c2ccncc2)oc2c(Nc3cccc(F)c3)cccc12` [KN351, 8-(3-Fluorophenylamino)-2-(4-pyridinyl)-4H-benzopyran-1-one], the IC50 in test [1] worked out at 0.5 µM.

`Cc1cc(-c2ccccc2)c2oc(-c3ccncc3)cc(=O)c2c1` [TGX258, 8-Phenyl-6-methyl-2-(4-pyridinyl)-4H-benzopyran-1-one]: the values for the IC50 at P110 δ and at P110 γ were more than 10 µM and more than 20 µM, respectively.
